One experiment has as its system OV90. Description: drug sensitivity score (DSS) from 5-point dose-response viability curve (DSS (area-under-curve based score)); higher = more sensitive (stronger growth inhibition or killing); extreme values may be limits of the assay. To be noted: exposure time: 72 h; concentration range: 5 concentrations over 10,000-fold range. The method, boiled down: (§1)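 Ovarian cancer and normal ovarian cell lines were tested in 384-well plates. Drugs were acoustically dispensed (Echo 550) in DMSO or water at five concentrations spanning a 10,000-fold range, then 1,500 cells per well were added and incubated 3 days at 37°C, 5% CO2. Viability was read by CellTiter-Glo luminescence on a PHERAstar FS. Drug sensitivity score was derived per cell line and drug with Breeze software; higher means more sensitive, zero means no response.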
As for `CCCCCOC(=O)Nc1nc(=O)n([C@@H]2O[C@H](C)[C@@H](O)[C@H]2O)cc1F` [Capecitabine], the drug sensitivity score came to 0.

The molecule `COc1ccc2[nH]cc(/C=C3\C(=O)Nc4ccc(NC(=O)CCN5CCCCC5)cc43)c2c1` returned a drug sensitivity score of 11.7.

The molecule `CNC(=O)c1nn(C)c2c1C(C)(C)Cc1cnc(Nc3ccc(N4CCN(C)CC4)cc3)nc1-2` [Milciclib] displayed a drug sensitivity score of 8.1.

As for `C[C@H]1C[C@@H]2[C@H]([C@@H](O)C[C@@]3(C)[C@H]2CC[C@]3(O)C(=O)CO)[C@@]2(C)C=CC(=O)C=C12` [Methylprednisolone], the drug sensitivity score was 0.

The molecule `CCc1c(C(=O)C(N)=O)c2c(OCC(=O)O)cccc2n1Cc1ccccc1` [Varespladib] came in with a drug sensitivity score of 0.

For the molecule `Cc1ccc(C(=O)Nc2ccc(Oc3cc4cnn(C)c4cc3-c3cn[nH]c3)c(F)c2)c(=O)n1-c1ccc(F)cc1` [Merestinib], the drug sensitivity score amounted to 0.6.

In turn, `Clc1ccccc1C(c1ccccc1)(c1ccccc1)n1cccn1` [TRAM-34] gave a drug sensitivity score of 0.

On to `Cc1cc(Nc2cc(N3CCN(C)CC3)nc(/C=C/c3ccccc3)n2)n[nH]1` [ENMD-2076], for which the drug sensitivity score amounted to 8.4.

The molecule `O=C(Nc1cccc(Nc2ncc(Br)c(NCCc3cnc[nH]3)n2)c1)N1CCCC1` [BX-912] displayed a drug sensitivity score of 7.4.

In the case of `COc1cc(OC)c(/C=C/S(=O)(=O)Cc2ccc(OC)c(NCC(=O)O)c2)c(OC)c1` [Rigosertib], the drug sensitivity score is 20.2.

Molecule `CCS(=O)(=O)c1cccc(-c2cc(C(=O)NC3CCN(C)CC3)c(C)c3[nH]c4ncc(C)cc4c23)c1` [TAK-901] gave a drug sensitivity score of 4.6.

`CC(C)NC(=O)COc1cccc(-c2nc(Nc3ccc4[nH]ncc4c3)c3ccccc3n2)c1` [KD025] displayed a drug sensitivity score of 8.7.

In the case of `COc1cccc(-c2ccc(NC(=O)C3=C(C(=O)O)CCC3)c(F)c2)c1` [Vidofludimus], the drug sensitivity score came to 0.

The molecule `C=CCN(/C=C1/C(=O)O[C@H](COC)[C@@]2(C)C1=C(O)C(=O)C1=C2[C@H](OC(C)=O)C[C@]2(C)C(=O)CC[C@@H]12)CC=C` [Sonolisib] returned a drug sensitivity score of 0.

`C=C(c1ccc(C(=O)O)cc1)c1cc2c(cc1C)C(C)(C)CCC2(C)C` [Bexarotene] showed a drug sensitivity score of 1.3.

Regarding `CC1CCC(n2c3cnccc3c3cnc(Nc4ccc5c(n4)CCN(C(=O)CO)C5)nc32)CC1` (configuration not stated) [AMG-925], the drug sensitivity score was determined as 0.

The test system of the next experiment is HOSE1C. The experiment is described as above. To be noted: exposure time: 72 h; concentration range: 5 concentrations over 10,000-fold range. An outline of the steps: as §1
The molecule `C[C@@]1(C(=O)Nc2ccc(F)nc2)CCCN1c1nc(Nc2cc(C3CC3)n[nH]2)c2cccn2n1` had a drug sensitivity score of 8.9.

Take `Nc1nc2[nH]cc(CCc3ccc(C(=O)N[C@@H](CCC(=O)O)C(=O)O)cc3)c2c(=O)[nH]1` [Pemetrexed]: the drug sensitivity score was found to be 22.9.

Consider `CCC(C)n1ncn(-c2ccc(N3CCN(c4ccc(OCC5COC(Cn6cncn6)(c6ccc(Cl)cc6Cl)O5)cc4)CC3)cc2)c1=O` (configuration not stated) [Itraconazole], for which the drug sensitivity score came to 0.

For `NCC(=O)Nc1ccc(-n2nc(C(F)(F)F)cc2-c2ccc3c(ccc4ccccc43)c2)cc1`, the drug sensitivity score was 21.7.

`O=C1CN2Cc3c(ccc(Cl)c3Cl)N=C2N1` [Anagrelide] yielded a drug sensitivity score of 0.

In the case of `CN1CCC(COc2cnc(-c3cccc(Cn4nc(-c5cccc(C#N)c5)ccc4=O)c3)nc2)CC1` [Tepotinib], the drug sensitivity score was determined as 0.

In turn, `Cc1cc2c(F)c(Oc3ncnn4cc(OC[C@@H](C)O)c(C)c34)ccc2[nH]1` [Brivanib] registered a drug sensitivity score of 0.

In the case of `COc1cc2c(NC3CCN(C(C)C)CC3)nc(N3CCC(F)(F)CC3)nc2cc1OCCCN1CCCC1` [UNC0642], the drug sensitivity score came to 0.

The molecule `Nc1ccn([C@@H]2O[C@H](CO)[C@@H](O)C2(F)F)c(=O)n1` [Gemcitabine] registered a drug sensitivity score of 8.2.

As for `Cc1ccc(C(=O)Nc2ccc(CN3CCN(C)CC3)c(C(F)(F)F)c2)cc1C#Cc1cnc2cccnn12` [Ponatinib], the drug sensitivity score stood at 3.3.

For `Oc1ccc2c(c1)CC[C@H](c1ccccc1)[C@@H]2c1ccc(OCCN2CCCC2)cc1` [Lasofoxifene], the drug sensitivity score stood at 0.

The molecule `NCCNc1ccc(NCCN)c2c1C(=O)c1ccncc1C2=O` [Pixantrone] yielded a drug sensitivity score of 0.

The molecule `COc1cc(Nc2ncc(F)c(Nc3ccc4c(n3)N(COP(=O)(O)O)C(=O)C(C)(C)O4)n2)cc(OC)c1OC` [Fostamatinib] had a drug sensitivity score of 2.

Molecule `C=CC(=O)Nc1cccc(Nc2nc(Nc3ccc(N4CCN(C(C)=O)CC4)cc3OC)ncc2C(F)(F)F)c1` [Rociletinib] returned a drug sensitivity score of 4.2.

With `O=C(O)c1ccc(O)c2ncccc12` [IOX-1], the drug sensitivity score turned out to be 4.6.

The molecule `CCCCCOC(=O)Nc1nc(=O)n([C@@H]2O[C@H](C)[C@@H](O)[C@H]2O)cc1F` [Capecitabine] came in with a drug sensitivity score of 0.3.

In the case of `COc1ccc2[nH]cc(/C=C3\C(=O)Nc4ccc(NC(=O)CCN5CCCCC5)cc43)c2c1`, the drug sensitivity score is 4.8.

Turning to `CNC(=O)c1nn(C)c2c1C(C)(C)Cc1cnc(Nc3ccc(N4CCN(C)CC4)cc3)nc1-2` [Milciclib], the drug sensitivity score was found to be 8.8.

In the case of `C[C@H]1C[C@@H]2[C@H]([C@@H](O)C[C@@]3(C)[C@H]2CC[C@]3(O)C(=O)CO)[C@@]2(C)C=CC(=O)C=C12` [Methylprednisolone], the drug sensitivity score amounted to 0.

`CCc1c(C(=O)C(N)=O)c2c(OCC(=O)O)cccc2n1Cc1ccccc1` [Varespladib]: the drug sensitivity score came out at 0.

Molecule `Cc1ccc(C(=O)Nc2ccc(Oc3cc4cnn(C)c4cc3-c3cn[nH]c3)c(F)c2)c(=O)n1-c1ccc(F)cc1` [Merestinib] had a drug sensitivity score of 0.

`Clc1ccccc1C(c1ccccc1)(c1ccccc1)n1cccn1` [TRAM-34] registered a drug sensitivity score of 0.

As to `Cc1cc(Nc2cc(N3CCN(C)CC3)nc(/C=C/c3ccccc3)n2)n[nH]1` [ENMD-2076], the drug sensitivity score stood at 7.7.

Take `O=C(Nc1cccc(Nc2ncc(Br)c(NCCc3cnc[nH]3)n2)c1)N1CCCC1` [BX-912]: the drug sensitivity score came to 4.5.

The molecule `COc1cc(OC)c(/C=C/S(=O)(=O)Cc2ccc(OC)c(NCC(=O)O)c2)c(OC)c1` [Rigosertib] came in with a drug sensitivity score of 28.4.

Molecule `CCS(=O)(=O)c1cccc(-c2cc(C(=O)NC3CCN(C)CC3)c(C)c3[nH]c4ncc(C)cc4c23)c1` [TAK-901] registered a drug sensitivity score of 3.5.

On to `CC(C)NC(=O)COc1cccc(-c2nc(Nc3ccc4[nH]ncc4c3)c3ccccc3n2)c1` [KD025], for which the drug sensitivity score worked out at 0.

Take `COc1cccc(-c2ccc(NC(=O)C3=C(C(=O)O)CCC3)c(F)c2)c1` [Vidofludimus]: the drug sensitivity score was 6.

Regarding `C=CCN(/C=C1/C(=O)O[C@H](COC)[C@@]2(C)C1=C(O)C(=O)C1=C2[C@H](OC(C)=O)C[C@]2(C)C(=O)CC[C@@H]12)CC=C` [Sonolisib], the drug sensitivity score is 0.

In turn, `C=C(c1ccc(C(=O)O)cc1)c1cc2c(cc1C)C(C)(C)CCC2(C)C` [Bexarotene] gave a drug sensitivity score of 0.

`CC1CCC(n2c3cnccc3c3cnc(Nc4ccc5c(n4)CCN(C(=O)CO)C5)nc32)CC1` (configuration not stated) [AMG-925] yielded a drug sensitivity score of 0.

(Values after the supplement of paper PMC11616607.)
